Results on four compounds are retold here after patent US20250289809A1, “COMPOUNDS USEFUL FOR GOUT” (ATOM BIOSCIENCE AMERICA CORPORATION, priority 2022, published 2025).

The structures appear in SMILES notation.

For series [1], the system named is potassium oxonate -induced hyperuricemic rats. Nature of the series: Serum uric acid level in potassium oxonate-induced hyperuricemic rats after 3-day administration. In kind it is in vivo, Sprague Dawley (SD) rats. As to conditions: for Uric acid: serum, mean ± SD, n=6; for Effect on serum uric acid level after modeling, compared with the model group at the same time point: 2 mg/kg gavage, hyperuricemic rats, result in words. The text has this:
Compound 30 and 32 were light yellow powders and triturated with 0.5% CMC-Na just prior to use to prepare suspensions having a corresponding concentration for gavage.
Febuxostat, purchased from Sigma, was triturated with 0.5% CMC-Na just prior to use to prepare a suspension having a corresponding concentration for gavage.
Sprague Dawley (SD) rats, SPF grade, 30, male, weighing 230-250 g, purchased from Shanghai SLAC Laboratory Animal Co., Ltd., permission number: SCXK (hu) 2022-0004, quality certification number: 20220004017238.
Uric acid assay kit (phosphotungstic acid reduction method), batch number: 20230224, purchased from NanJing Jiancheng Bioengineering Institute; Potassium oxonate, article number: 00164, batch number: T6GKM-TA, purchased from Tokyo Chemical Industry Co., Ltd., Japan (TCI); carboxymethyl cellulose sodium (CMC-Na), batch number: 20170810, chemically pure, purchased from Sinopharm chemical reagent Co., Ltd.
30 male SD rats weighed approximately 220-240 g after one week of adaptation. They were randomly divided into 5 groups according to the body weight, with 6 rats in each group, namely: (1) normal group (0.5% CMC-Na), (2) model group (0.5% CMC-Na), (3) Febuxostat, 2 mg/kg, (4) compound 30, 2 mg/kg and (5) compound 32, 2 mg/kg. The drugs in each group were prepared into a corresponding concentration suspension, and the administration volume was 0.5 mL/100 g.
After the rats in each group were purchased and adapted to feeding, they were fasted for 12 h, and intraperitoneally injected with potassium oxonate at a dose of 300 mg/kg to establish a model. 0.5 h after modeling, each test drug group was subjected to gavage administration once. The drug was administered continuously for 3 days. On day 3, blood samples were collected from the retro-orbital venous plexus before and 1, 3 and 5 h after injection of potassium oxonate. The samples were centrifuged at 3500 rpm for 10 min, and 30 μL of serum was collected to measure the uric acid level at each time point.
The measurement data of each test were expressed as (mean)±(standard deviation). The comparison between groups used ANOVA-Dunnett T test to examine the significance. P<0.05 was used as the significance index, and P<0.01 was used as the extremely significant index.

Series [2] in a line: In vivo pharmacokinetic experiments in SD rats (oral and intravenous). As to conditions: male, Sprague-Dawley (SD), rat, plasma. As for the experimental part:
Preparation of compound stock solution: An appropriate amount of compound solid powder was be weighed and added in a certain amount of DMSO, and vortex ultrasound to obtain a 10 mg/mL stock solution.
Preparation of test compound for gavage: respectively taking an appropriate amount of the compound stock solution, adding a certain amount of Solutol HS15 solution, vortexing for 1 minute, then adding a certain amount of physiological saline, and fully mixing to obtain a 1 mg/mL solution.
Preparation of test compound for intravenous injection: respectively taking an appropriate amount of the compound stock solution, adding a certain amount of Solutol HS15 solution, vortexing for 1 minute, then adding a certain amount of physiological saline, and fully mixing until uniform, so as to obtain a 0.5 mg/mL solution.
SD rats, male, SPF grade, 6-8 weeks old, purchased from JH Laboratory Animal Co. LTD. Permission number: SCXK (SH) 2022-0009, certification number: 20220009004139.
The experimental animals were fasted overnight before gavage administration, and were given food 4 hours after administration, with free access to water. Each test compound was divided into two groups, namely, intravenous administration group and oral administration group.
Blood samples (150 μL/sample) were collected from the jugular vein of SD rats before administration and at 5 min (only intravenous administration group), 15 min, 30 min, 1 h, 2 h, 4 h, 8 h and 24 h after administration, respectively. The samples were placed in centrifuge tubes containing anticoagulant sodium heparin and centrifuged at 4° C., 2000 g for 5 minutes to separate plasma. The plasma samples were analyzed by LC/MS/MS to detect the concentration of each test compound.
Non-compartmental model-related parameters were calculated by WinNonlin® Professional software.

Where [3] appears, read: 0 h (before potassium oxonate injection on day 3), 2 mg/kg gavage once daily for 3 days.
[4] abbreviates: 1 h after potassium oxonate 300 mg/kg i.p. on day 3, 2 mg/kg gavage for 3 days.
The mark [5] stands for this setting: 3 h after potassium oxonate 300 mg/kg i.p. on day 3, 2 mg/kg gavage for 3 days.
[6] abbreviates: 5 h after potassium oxonate 300 mg/kg i.p. on day 3, 2 mg/kg gavage for 3 days.
Where [7] appears, read: Intravenous injection administration - 1 mg/kg.
Where [8] appears, read: po, Gavage administration - 10 mg/kg.

As to `Cc1nc(-c2ccc(OCC(C)C)c(C#N)c2)sc1C(=O)O` [Febuxostat, reference compound], the Uric acid amounted to 39.2 ± 6.2 µmol/L in series [1] (setting [3]), 34.4 ± 7.1 µmol/L in series [1] (setting [4]), 31.2 ± 7.6 µmol/L in series [1] (setting [5]) and 24.7 ± 4.7 µmol/L in series [1] (setting [6]). Besides, the “Effect on serum uric acid level after modeling, compared with the model group at the same time point” value in series [1] was “significantly reduce”.

Regarding `CCOC(=O)OC(C)OC(=O)c1cnn(-c2ccc3c(c2)c(C#N)cn3C(C)C)c1` (stereo not shown) [compound 11, {1-[(ethoxycarbonyl)oxy]}ethyl 1-(3-cyano-1-isopropyl-1H-indol-5-yl)-1H-pyrazole-4-carboxylate], in series [2] (setting [7]), the AUC(0-inf) was determined as 1100 ng·h/mL, the highest concentration (Cmax) came to 1860 ng/mL, the MRT inf came out at 3.69 h and the Tmax amounted to 0.083 h. Further, the half-life in series [2] (setting [7]) is 7.72 h. Further, in series [2] (setting [8]), the AUC(0-inf) was 12400 ng·h/mL, the highest level (Cmax) was 4670 ng/mL, the MRT inf is 4.22 h and the time of peak concentration (Tmax) amounted to 0.25 h. Besides, the half-life in series [2] (setting [8]) is 3.44 h.

`CC(C)n1cc(C#N)c2cc(-n3cc(C(=O)OCCCCO[N+](=O)[O-])cn3)ccc21` [compound 30, [4-(nitrooxy)]butyl 1-(3-cyano-1-isopropyl-1H-indol-5-yl)-1H-pyrazole-4-carboxylate]: the Uric acid in series [1] (setting [3]) was 45.0 ± 8.4 µmol/L; in series [1] (setting [4]), 70.0 ± 14.8 µmol/L; in series [1] (setting [5]) it was 94.2 ± 22.7 µmol/L; in series [1] (setting [6]) it was 72.2 ± 11.4 µmol/L. Besides, in series [1], the “Effect on serum uric acid level after modeling, compared with the model group at the same time point” value is reported as “significantly reduce”.

Regarding `CC(C)n1cc(C#N)c2cc(-n3cc(C(=O)Oc4cccc(CO[N+](=O)[O-])c4)cn3)ccc21` [compound 32, phenyl [3-(nitrooxy)methyl] 1-(3-cyano-1-isopropyl-1H-indol-5-yl)-1H-pyrazole-4-carboxylate], the Uric acid is 49.1 ± 6.7 µmol/L in series [1] (setting [3]), 68.9 ± 15.8 µmol/L in series [1] (setting [4]), 82.2 ± 23.3 µmol/L in series [1] (setting [5]) and 65.8 ± 13.6 µmol/L in series [1] (setting [6]). The “Effect on serum uric acid level after modeling, compared with the model group at the same time point” value in series [1] is “significantly reduce”.
